Results reported in patent US12319913B2, “5-halouracil-modified microRNAs and their use in the treatment of cancer” (The Research Foundation for The State University of New York, priority 2018, dated 2025).
[5FU] = 5-fluorouracil base replacing uracil

Tests used:
Assay type in all cases: cell-based, human
[1] = tested on: TS, BCL2 and E2F3; assay: Western immunoblot of miR-129 targets in HCT-116 cells; details: colon cancer HCT-116 cells
Description: (§1) Western immunoblot analysis: Forty-eight hours after transfection, equal amounts of protein (15 μg) extracted from cells lysed in RIPA buffer with protease inhibitor (Sigma) and were separated on 10%-12% sodium dodecyl sulfate-polyacrylamide gels using standard procedures. The primary antibodies used for the analysis were rabbit anti-YAP1 monoclonal antibody (1:10000) (Cell Signaling Technologies), anti-DLCK1 (1:500) (Abcam), anti-BCL2 (1:500) (NeoMarkers), anti-MDC1 (1:500), anti-SUZ12 (1:500), anti-pChk-1 (1:500), anti beta-actin (1:500), anti-BMI-1 (1:10000) (Cell Signaling Technologies), mouse anti-human TS antibody (1:500), anti-α-tubulin (1:50000) (Santa Cruz Biotech Inc.), anti-GAPDH (1:100000) (Santa Cruz Biotech Inc.), anti-E2F3 (1:500) (Santa Cruz Biotech Inc.), Horseradish peroxidase-conjugated antibodies against mouse or rabbit (1:5000, Santa Cruz Biotech Inc.) were used as the secondary antibodies. Protein bands were visualized with autoradiography film using SuperSignal West Pico Chemiluminescent Substrate (Thermo Fischer). Western blot density was quantified using Image J software.

[2] = tested on: SW480 colon cancer cells; assay: WST-1 cell proliferation assay, SW480; details: SW480, in words, vs controls
Description: For transfections, 1×10^5 cells were plated in six-well plates and transfected with 100 nM of control non-specific miRNA (Thermo Fischer), a modified microRNA, or exogenous native microRNA after 24 hours using Oligofectamine (Thermo Fischer) following the manufacturer's protocols. For reagent free transfection, cells were plated in 6 well plates at (1×10^5) cells per well. Twenty-four hours later 100 pmol miRNA (Control, miR-15a, Mimic-1) were diluted in Optimem (Thermo Fischer) and added to the plate. Media was changed after 24 hours. Media was supplemented with 10% fetal bovine serum (Thermo Fischer). Briefly, cells were cultured in growth media (DMEM/F12 supplemented with B27, 10 ng/mL bFGF, and 20 ng/mL EGF (Life Technologies) in ultra-low attachment flasks) for up to 6 days. […]
Cell proliferation assay: Twenty-four hours after transfection, cells were seeded in 96-well plates at a density of 2000 cells per well. The cell proliferation assay was performed on days 1 to 5 by incubating 10 μl WST-1 (Roche Applied Science, Mannheim, Germany) in the culture medium for 1 h and reading the absorbance at 450 and 630 nm. The cell proliferation rate was calculated by subtracting the absorbance at 450 nm from the absorbance at 630 nm. […] The O.D. was calculated by subtracting the absorbance at 630 nm from that at 450 nm. […]

[3] = tested on: HCT-116 colon cancer cells; assay: 5-FU treatment and cytotoxicity assay (WST-1); details: 50 nM modified miR-129 vs 2 μM 5-FU
Description: 5-FU treatment and cytotoxicity assay: Twenty-four hours after transfection, cancer cells were plated in 96-well plates at 2×10^3 cells per well in triplicates in 100 μL of medium. After 24 hours, fresh medium containing 2 μM 5-FU alone, 50 nM native microRNA, 50 nM modified microRNA (e.g., modified miR-129), or a combination of […] with 50 nM a modified microRNA of the present disclosure e.g., modified miR-129, were added, and cells were cultured for an additional 72 hours. Cell viability was measured using the WST-1 assay.

[4] = tested on: YAP1, BMI1, DCLK1 and BCL2; assay: Western blot of miR-15a targets in HCT-116 colon cancer stem cells; details: three days following transfection
Description: as §1, with “[…],” for “Forty-eight hours after transfection,”, “software. […]” for “software.”

Substance	target specificity to TS, BCL2 and E2F3 ([1]; Western immunoblot)	reducing the expression levels of TS, BCL2 and E2F3 ([1]; compared with unmodified (control) miR-129)	inhibition of colon cancer cell proliferation [2]	inhibiting tumor cell proliferation, potency compared with 5-FU [3]	protein levels of YAP1, BMI1, DCLK1 and BCL2 [4]
CU^FU^FU^FU^FU^FGCGGU^FCU^FGGGCU^FU^FGC (CUUUUUGCGGUCUGGGCUUGC; RNA, [5FU] at 2, 3, 4, 5, 6, 11, 13, 18, 19, backbone not given here) [modified miR-129]	retain their target specificity	more potent than unmodified (control) miR-129	inhibition of colon cancer cell proliferation	much more potent than 2 μM 5-FU	–
U^FAGCAGCACAU^FAAU^FGGU^FU^FU^FGU^FG (UAGCAGCACAUAAUGGUUUGUG; RNA, [5FU] at 1, 11, 14, 17, 18, 19, 21, backbone not given here) [modified miR-15a]	–	–	–	–	reduced
